Measured values from the NIST ThermoML archive (doi:10.1021/je700672f).
± gives the expanded uncertainty stated by the source.

Experiments:
[1] = xn = mol fraction of the nth substance listed; details: 101 kPa, Liquid, x2 = 0
[2] = 101 kPa, Liquid

O [water] + OCCOCCO
[1]
Details | mass density [kg/m3] | viscosity [mPa·s]
283.15 K | 999.7 ± 0.19 | –
293.15 K | – | 1.013 ± 0.014
303.15 K | 995.55 ± 0.2 | 0.811 ± 0.012
313.15 K | – | 0.667 ± 0.011
323.15 K | 988.03 ± 0.21 | 0.561 ± 0.011
328.15 K | 985.69 ± 0.22 | –
333.15 K | 983.19 ± 0.23 | 0.477 ± 0.01
338.15 K | 980.55 ± 0.23 | –
343.15 K | 977.76 ± 0.24 | 0.413 ± 0.01
348.15 K | 974.84 ± 0.25 | –
353.15 K | 971.79 ± 0.25 | 0.362 ± 0.009

OCCOCCO [diethylene glycol]
[2]
Details | mass density [kg/m3] | viscosity [mPa·s]
283.15 K | 1124.24 ± 0.73 | –
288.15 K | 1120.65 ± 0.72 | –
293.15 K | 1117.05 ± 0.71 | 36.43 ± 0.35
298.15 K | 1113.47 ± 0.7 | –
303.15 K | 1109.88 ± 0.69 | 22.09 ± 0.22
308.15 K | 1106.29 ± 0.68 | –
313.15 K | 1102.7 ± 0.67 | 14.56 ± 0.15
318.15 K | 1099.11 ± 0.66 | –
323.15 K | 1095.51 ± 0.65 | 10.03 ± 0.11
328.15 K | 1091.91 ± 0.64 | –
333.15 K | 1088.3 ± 0.63 | 7.22 ± 0.08
338.15 K | 1084.68 ± 0.62 | –
343.15 K | 1081.05 ± 0.61 | 5.369 ± 0.063
348.15 K | 1077.4 ± 0.6 | –
353.15 K | 1073.74 ± 0.59 | 4.139 ± 0.05
